Like-named read-outs stand apart in the source and are kept apart here.
What was measured:
[1] = HPLC purity and related substances of micronised BDP after gamma-irradiation; type: physicochemical
Description: (§1) About 600 g of micronised BDP was stored in a 20 1 polythene container after having replaced air by nitrogen, the container was in turn sealed in two Polikem bag. The product was subjected to gamma-irradiation at 2 to 9 KGy. After the exposure, the BDP purity and the amount of related substances were determined by HPLC. On the batch subjected to 2 kGy dose, the particle size as well as the loss of weight were also determined by Malvern analysis and TGA respectively, in comparison to the non-irradiated product.

[2] = cited from earlier work; for stability after gamma-irradiation: 60Co, 1 to 4 Mrad; for degradation degree: micronised steroids, radiation doses 4.5 and 15 Mrad
[3] = Loss of weight by TGA of micronised BDP after gamma-irradiation; type: physicochemical
Description: as §1

[4] = Particle size of micronised BDP powder by Malvern analysis; type: physicochemical
Description: as §1

**Q.** With `CCC(=O)OCC(=O)[C@@]1(OC(=O)CC)[C@@H](C)C[C@H]2[C@@H]3CCC4=CC(=O)C=C[C@]4(C)[C@@]3(Cl)[C@@H](O)C[C@@]21C` [BDP, beclomethasone dipropionate] as the compound, how does the “stability after exposure to gamma-irradiation” value ([1]; 2 to 9 KGy) read?
**A.** stable

**Q.** What about the stability after gamma-irradiation ([2]; powder) of the same compound?
**A.** stable immediately after irradiation

**Q.** What about the stability after gamma-irradiation ([2]; solution in methanol or propylene glycol) of the same compound?
**A.** quick degradation

**Q.** For `CCC(=O)OCC(=O)[C@@]1(OC(=O)CC)[C@@H](C)C[C@H]2[C@@H]3CCC4=CC(=O)C=C[C@]4(C)[C@@]3(Cl)[C@@H](O)C[C@@]21C` [Irr. BDP, beclomethasone dipropionate], which “Purity (%)” value ([1]; gamma-irradiation 2 KGy) is on record?
**A.** 99.6%

**Q.** And the “Related substances (%)” value ([1]; gamma-irradiation 2 KGy)?
**A.** 0.4%

**Q.** What about the “Purity (%)” value ([1]; gamma-irradiation 3.17 KGy) of the same compound?
**A.** 99.6%

**Q.** What about the “Related substances (%)” value ([1]; gamma-irradiation 3.17 KGy) of the same compound?
**A.** 0.4%

**Q.** What about the “Purity (%)” value ([1]; gamma-irradiation 9.08 KGy) of the same compound?
**A.** 99.3%

**Q.** What about the “Related substances (%)” value ([1]; gamma-irradiation 9.08 KGy) of the same compound?
**A.** 0.7%

**Q.** What about the “Loss of weight (%, TGA)” value ([3]; gamma-irradiation 2 KGy) of the same compound?
**A.** 0.13%

**Q.** What about the “Particle size distribution (μm, Malvern) d (0.1)” value ([4]; gamma-irradiation 2 KGy) of the same compound?
**A.** 0.48 μm

**Q.** What about the “Particle size distribution (μm, Malvern) d (0.5)” value ([4]; gamma-irradiation 2 KGy) of the same compound?
**A.** 1.81 μm

**Q.** And the “Particle size distribution (μm, Malvern) d (0.9)” value ([4]; gamma-irradiation 2 KGy)?
**A.** 5.73 μm

**Q.** Which “Purity (%)” value ([1]; non-irradiated) does the source give for `CCC(=O)OCC(=O)[C@@]1(OC(=O)CC)[C@@H](C)C[C@H]2[C@@H]3CCC4=CC(=O)C=C[C@]4(C)[C@@]3(Cl)[C@@H](O)C[C@@]21C` [Non-irr. BDP, beclomethasone dipropionate] here?
**A.** 99.7%

**Q.** What about the “Related substances (%)” value ([1]; non-irradiated) of the same compound?
**A.** 0.3%

**Q.** What about the “Loss of weight (%, TGA)” value ([3]; non-irradiated micronised powder) of the same compound?
**A.** 0.12%

**Q.** And the “Particle size distribution (μm, Malvern) d (0.1)” value ([4]; non-irradiated powder)?
**A.** 0.49 μm

**Q.** And the “Particle size distribution (μm, Malvern) d (0.5)” value ([4]; non-irradiated powder)?
**A.** 1.91 μm

**Q.** What about the “Particle size distribution (μm, Malvern) d (0.9)” value ([4]; non-irradiated powder) of the same compound?
**A.** 5.98 μm

**Q.** Which percentage of degradation ([2]; powder corticosteroids sterilised with 60Co) does the source give for `C[C@]12CCC(=O)C=C1CC[C@@H]1[C@@H]2[C@@H](O)C[C@@]2(C)[C@H]1CC[C@]2(O)C(=O)COC(=O)CCC(=O)O` [hydrocortisone sodium succinate] here?
**A.** 1.4 %/Mrad

**Q.** Which degradation degree [2] does the source give for `C[C@]12CCC(=O)C=C1CC[C@@H]1[C@@H]2[C@@H](O)C[C@@]2(C)[C@H]1CC[C@]2(O)C(=O)CO` [hydrocortisone] here?
**A.** about 2.4%

**Q.** With `C[C@]12C=CC(=O)C=C1CC[C@@H]1[C@@H]2[C@@H](O)C[C@@]2(C)[C@H]1CC[C@]2(O)C(=O)CO` [prednisolone] as the compound, how does the degradation degree [2] read?
**A.** about 2.4%

Source: patent US6464958B1, “Process for the preparation of suspensions of drug particles for inhalation delivery” (Chiesi Farmaceutici S.p.A., priority 1998, dated 2002)
